Results: ChEMBL document CHEMBL1909046, “DrugMatrix in vitro pharmacology data”
pIC50, pKi: −log10 of the molar value.

How the values were obtained:
[1] = target: T1, B2 bradykinin receptor (Homo sapiens, UniProt P30411); type: cell membranes, Membrane; settings: chem-1; note: in other assays of this panel Not Active means under 50% inhibition at 10 µM
T1 sequence (P30411 whole entry): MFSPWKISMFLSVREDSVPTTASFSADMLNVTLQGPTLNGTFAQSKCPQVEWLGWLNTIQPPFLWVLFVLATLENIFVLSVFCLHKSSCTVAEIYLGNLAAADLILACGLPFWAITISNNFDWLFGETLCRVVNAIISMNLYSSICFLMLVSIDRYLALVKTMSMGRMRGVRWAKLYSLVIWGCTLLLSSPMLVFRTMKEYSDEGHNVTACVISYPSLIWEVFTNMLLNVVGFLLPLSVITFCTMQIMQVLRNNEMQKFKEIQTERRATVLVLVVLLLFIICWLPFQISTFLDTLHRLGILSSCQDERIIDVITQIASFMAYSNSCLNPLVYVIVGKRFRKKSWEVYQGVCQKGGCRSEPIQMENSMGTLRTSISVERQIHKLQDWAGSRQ

[2] = target: Sodium-dependent dopamine transporter (Homo sapiens, UniProt Q01959); assay: DRUGMATRIX: Dopamine Transporter radioligand binding (ligand: [125I] RTI-55); type: cell membranes, CHO-K1, Membrane; settings: Not Active = under 50% inhibition at 10 µM; for IC50: cho-k1; for pIC50: read-out: IC50; for pKi: read-out: Ki
[3] = target: T2, Muscarinic acetylcholine receptor M2 (Homo sapiens, UniProt P08172); type: cell membranes, CHO-K1, Membrane; settings: cho-k1; note: in other assays of this panel Not Active means under 50% inhibition at 10 µM
T2 sequence (P08172 whole entry): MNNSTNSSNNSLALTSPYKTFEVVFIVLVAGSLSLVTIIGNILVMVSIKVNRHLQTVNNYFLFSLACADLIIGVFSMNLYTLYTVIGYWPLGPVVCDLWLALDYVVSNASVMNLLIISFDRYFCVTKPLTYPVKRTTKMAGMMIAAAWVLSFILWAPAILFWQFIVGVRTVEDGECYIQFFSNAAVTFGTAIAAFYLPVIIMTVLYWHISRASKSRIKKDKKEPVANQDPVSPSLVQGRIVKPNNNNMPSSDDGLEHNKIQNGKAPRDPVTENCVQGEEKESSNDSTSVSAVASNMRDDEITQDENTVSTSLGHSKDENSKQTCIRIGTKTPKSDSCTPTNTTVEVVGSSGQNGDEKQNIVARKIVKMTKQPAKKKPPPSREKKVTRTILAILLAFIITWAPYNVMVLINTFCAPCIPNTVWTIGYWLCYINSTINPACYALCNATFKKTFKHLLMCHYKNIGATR

[4] = target: Kappa-type opioid receptor (Homo sapiens, UniProt P41145); assay: DRUGMATRIX: Opiate kappa (OP2, KOP) radioligand binding (ligand: [3H] Diprenorphine); type: cell membranes, HEK293, Membrane; settings: Not Active = under 50% inhibition at 10 µM; for IC50: hek293
[5] = target: T3, Progesterone receptor (Bos taurus, UniProt Q690N0); assay: DRUGMATRIX: Progesterone radioligand binding (ligand: [3H] R-5020); type: tissue-based, Uterus; settings: Not Active = under 50% inhibition at 10 µM
T3 sequence (Q690N0 whole entry): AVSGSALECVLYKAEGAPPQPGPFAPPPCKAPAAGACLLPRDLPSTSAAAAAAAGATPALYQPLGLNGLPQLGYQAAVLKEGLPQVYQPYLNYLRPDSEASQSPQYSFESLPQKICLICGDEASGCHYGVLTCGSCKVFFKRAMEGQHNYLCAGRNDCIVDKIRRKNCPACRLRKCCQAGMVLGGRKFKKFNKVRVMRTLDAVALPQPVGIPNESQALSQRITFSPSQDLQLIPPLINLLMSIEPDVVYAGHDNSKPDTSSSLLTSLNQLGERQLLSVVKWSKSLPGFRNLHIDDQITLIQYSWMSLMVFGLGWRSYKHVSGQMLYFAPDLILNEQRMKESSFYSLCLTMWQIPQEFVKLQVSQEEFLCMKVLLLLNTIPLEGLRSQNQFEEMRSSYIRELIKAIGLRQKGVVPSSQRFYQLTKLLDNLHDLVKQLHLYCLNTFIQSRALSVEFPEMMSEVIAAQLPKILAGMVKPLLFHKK

[6] = target: T4, Angiotensin-converting enzyme (Oryctolagus cuniculus, UniProt P12822); type: tissue-based, Lung;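 note: enzymatic inhibition of angiotensin-converting enzyme measured with FAPGG as the substrate; in other assays of this panel Not Active means under 50% inhibition at 10 µM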
T4 sequence (P12822 whole entry): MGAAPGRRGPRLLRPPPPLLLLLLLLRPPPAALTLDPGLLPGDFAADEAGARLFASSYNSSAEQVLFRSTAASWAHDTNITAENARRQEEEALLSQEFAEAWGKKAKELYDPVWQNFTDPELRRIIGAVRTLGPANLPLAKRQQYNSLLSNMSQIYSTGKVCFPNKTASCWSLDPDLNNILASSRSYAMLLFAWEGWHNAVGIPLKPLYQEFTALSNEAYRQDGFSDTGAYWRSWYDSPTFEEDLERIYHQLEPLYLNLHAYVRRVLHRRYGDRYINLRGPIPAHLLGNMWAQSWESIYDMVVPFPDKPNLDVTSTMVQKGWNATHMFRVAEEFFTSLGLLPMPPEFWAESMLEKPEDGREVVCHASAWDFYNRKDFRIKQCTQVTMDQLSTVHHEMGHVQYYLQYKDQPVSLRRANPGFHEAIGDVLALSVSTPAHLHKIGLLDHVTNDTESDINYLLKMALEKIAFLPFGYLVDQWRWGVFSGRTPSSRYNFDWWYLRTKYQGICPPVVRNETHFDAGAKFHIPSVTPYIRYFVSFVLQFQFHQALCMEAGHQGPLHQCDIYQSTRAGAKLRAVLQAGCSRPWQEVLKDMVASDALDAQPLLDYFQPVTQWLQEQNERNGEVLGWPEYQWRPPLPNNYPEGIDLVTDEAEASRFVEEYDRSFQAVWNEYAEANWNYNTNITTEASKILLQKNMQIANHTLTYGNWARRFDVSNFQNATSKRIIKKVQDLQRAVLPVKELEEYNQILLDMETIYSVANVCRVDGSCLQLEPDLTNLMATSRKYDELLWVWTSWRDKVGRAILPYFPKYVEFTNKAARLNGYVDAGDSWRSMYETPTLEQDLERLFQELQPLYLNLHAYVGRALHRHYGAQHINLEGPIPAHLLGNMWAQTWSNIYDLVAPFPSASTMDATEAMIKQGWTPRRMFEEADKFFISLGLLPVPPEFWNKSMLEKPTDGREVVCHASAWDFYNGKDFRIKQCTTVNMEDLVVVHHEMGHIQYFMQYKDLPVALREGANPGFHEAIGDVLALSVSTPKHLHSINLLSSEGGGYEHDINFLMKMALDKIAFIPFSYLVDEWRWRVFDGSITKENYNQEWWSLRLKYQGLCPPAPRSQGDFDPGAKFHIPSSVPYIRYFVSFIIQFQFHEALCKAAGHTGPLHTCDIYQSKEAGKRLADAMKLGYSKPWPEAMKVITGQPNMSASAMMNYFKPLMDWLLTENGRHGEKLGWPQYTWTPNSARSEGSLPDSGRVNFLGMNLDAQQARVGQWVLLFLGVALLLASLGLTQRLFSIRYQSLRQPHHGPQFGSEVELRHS

Chain of Kappa-type opioid receptor (P41145 whole entry): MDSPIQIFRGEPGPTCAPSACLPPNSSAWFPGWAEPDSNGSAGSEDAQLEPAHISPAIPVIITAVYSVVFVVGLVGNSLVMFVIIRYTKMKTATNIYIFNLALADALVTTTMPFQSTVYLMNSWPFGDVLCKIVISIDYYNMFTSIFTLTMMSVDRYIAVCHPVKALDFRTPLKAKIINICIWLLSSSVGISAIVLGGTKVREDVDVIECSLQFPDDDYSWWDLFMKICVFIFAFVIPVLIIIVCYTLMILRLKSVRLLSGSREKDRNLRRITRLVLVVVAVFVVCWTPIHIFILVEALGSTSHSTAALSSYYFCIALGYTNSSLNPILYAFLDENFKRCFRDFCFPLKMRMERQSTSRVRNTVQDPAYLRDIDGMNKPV
Chain of Sodium-dependent dopamine transporter (Q01959 whole entry): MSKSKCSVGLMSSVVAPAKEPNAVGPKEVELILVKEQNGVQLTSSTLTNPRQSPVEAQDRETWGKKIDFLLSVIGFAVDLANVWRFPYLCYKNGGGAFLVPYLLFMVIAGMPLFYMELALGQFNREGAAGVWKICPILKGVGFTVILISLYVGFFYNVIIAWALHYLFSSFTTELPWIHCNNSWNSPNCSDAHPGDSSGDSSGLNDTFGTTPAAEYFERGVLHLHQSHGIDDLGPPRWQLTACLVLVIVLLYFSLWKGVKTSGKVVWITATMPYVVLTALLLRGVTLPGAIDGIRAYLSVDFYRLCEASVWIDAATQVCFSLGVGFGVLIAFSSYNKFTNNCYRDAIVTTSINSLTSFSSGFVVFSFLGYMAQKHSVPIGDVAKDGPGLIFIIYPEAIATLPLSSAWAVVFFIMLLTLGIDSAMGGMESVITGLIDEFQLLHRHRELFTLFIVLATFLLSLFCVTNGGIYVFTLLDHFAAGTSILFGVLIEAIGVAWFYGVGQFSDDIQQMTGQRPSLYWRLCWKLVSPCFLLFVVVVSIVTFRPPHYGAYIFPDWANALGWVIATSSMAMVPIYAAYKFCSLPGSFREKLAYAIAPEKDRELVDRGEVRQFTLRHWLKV

| SMILES | IC50 [1] | IC50 [2] | IC50 [3] | IC50 [4] | IC50 [5] | IC50 [6] | pIC50 [2] | pKi [2] | pKi [4] | pIC50 ([4]; read-out: IC50) | pIC50 ([5]; read-out: IC50) | pKi ([5]; read-out: Ki) |
| --- | --- | --- | --- | --- | --- | --- | --- | --- | --- | --- | --- | --- |
| C[C@H]([C@](O)(Cn1cncn1)c1ccc(F)cc1F)S(C)(=O)=O [GENACONAZOLE] | Not Active | Not Active | Not Active | Not Active | Not Active | Not Active | – | – | – | – | – | – |
| Nn1nnc2ccccc21 | Not Active | Not Active | Not Active | Not Active | Not Active | Not Active | – | – | – | – | – | – |
| COc1ccccc1OCC(O)COC(N)=O (centres undefined) [METHOCARBAMOL] | Not Active | Not Active | Not Active | Not Active | Not Active | Not Active | – | – | – | – | – | – |
| Cc1c(F)c(N2CCNC(C)C2)cc2c1c(=O)c(C(=O)O)cn2C1CC1 (centres undefined) [GREPAFLOXACIN] | Not Active | Not Active | Not Active | Not Active | Not Active | Not Active | – | – | – | – | – | – |
| Oc1ccccc1O [CATECHOL] | Not Active | Not Active | Not Active | Not Active | Not Active | Not Active | – | – | – | – | – | – |
| O=P1(N(CCCl)CCCl)NCCCO1 (centres undefined) [CYCLOPHOSPHAMIDE ANHYDROUS] | Not Active | Not Active | Not Active | Not Active | Not Active | Not Active | – | – | – | – | – | – |
| CS(=O)(=O)OCCCCOS(C)(=O)=O [BUSULFAN] | Not Active | Not Active | Not Active | Not Active | Not Active | Not Active | – | – | – | – | – | – |
| CC(C)(CO)C(O)C(=O)NCCCO (centres undefined) [PANTHENOL] | Not Active | Not Active | Not Active | Not Active | Not Active | Not Active | – | – | – | – | – | – |
| O=C(O)c1cc(=O)c2c(OCC(O)COc3cccc4oc(C(=O)O)cc(=O)c34)cccc2o1 [CROMOLYN] | Not Active | Not Active | Not Active | Not Active | Not Active | Not Active | – | – | – | – | – | – |
| O=C(/C=C/c1ccc(O)c(O)c1)OCCc1ccccc1 [CAFFEIC ACID PHENETHYL ESTER] | Not Active | Not Active | Not Active | Not Active | Not Active | Not Active | – | – | – | – | – | – |
| Nc1nc(Cl)nc2c1ncn2[C@H]1C[C@H](O)[C@@H](CO)O1 [CLADRIBINE] | Not Active | Not Active | Not Active | Not Active | Not Active | Not Active | – | – | – | – | – | – |
| CC[C@H](C)C(=O)O[C@H]1C[C@@H](C)C=C2C=C[C@H](C)[C@H](CC[C@@H]3C[C@@H](O)CC(=O)O3)[C@H]21 [LOVASTATIN] | Not Active | – | Not Active | Not Active | Not Active | Not Active | 5.00 | 5.10 | – | – | – | – |
| CC[C@H](C)C(=O)O[C@H]1C[C@H](O)C=C2C=C[C@H](C)[C@H](CC[C@@H](O)C[C@@H](O)CC(=O)O)[C@H]21 [PRAVASTATIN] | Not Active | Not Active | Not Active | Not Active | Not Active | Not Active | – | – | – | – | – | – |
| CCOC(=O)n1ccn(C)c1=S [CARBIMAZOLE] | Not Active | Not Active | Not Active | Not Active | Not Active | Not Active | – | – | – | – | – | – |
| C#C[C@]1(O)CC[C@H]2[C@@H]3CCC4=Cc5oncc5C[C@]4(C)[C@H]3CC[C@@]21C [DANAZOL] | Not Active | – | Not Active | – | – | Not Active | 5.16 | 5.26 | 5.21 | 4.81 | 6.59 | 7.47 |
